{"source": "patent US7615560B2", "about": "“Thienopyrimidines as cooling agents” (Conopco, Inc., priority 2004, dated 2009)", "molecular_target": "T1, human TRPM8 channel (Homo sapiens, UniProt Q7Z2W7)", "T1 construct": "The open reading frame of human cDNA TRPM8 from position 41-3355bp was amplified; expressed in transfected cells", "T1 sequence (Q7Z2W7 whole entry)": "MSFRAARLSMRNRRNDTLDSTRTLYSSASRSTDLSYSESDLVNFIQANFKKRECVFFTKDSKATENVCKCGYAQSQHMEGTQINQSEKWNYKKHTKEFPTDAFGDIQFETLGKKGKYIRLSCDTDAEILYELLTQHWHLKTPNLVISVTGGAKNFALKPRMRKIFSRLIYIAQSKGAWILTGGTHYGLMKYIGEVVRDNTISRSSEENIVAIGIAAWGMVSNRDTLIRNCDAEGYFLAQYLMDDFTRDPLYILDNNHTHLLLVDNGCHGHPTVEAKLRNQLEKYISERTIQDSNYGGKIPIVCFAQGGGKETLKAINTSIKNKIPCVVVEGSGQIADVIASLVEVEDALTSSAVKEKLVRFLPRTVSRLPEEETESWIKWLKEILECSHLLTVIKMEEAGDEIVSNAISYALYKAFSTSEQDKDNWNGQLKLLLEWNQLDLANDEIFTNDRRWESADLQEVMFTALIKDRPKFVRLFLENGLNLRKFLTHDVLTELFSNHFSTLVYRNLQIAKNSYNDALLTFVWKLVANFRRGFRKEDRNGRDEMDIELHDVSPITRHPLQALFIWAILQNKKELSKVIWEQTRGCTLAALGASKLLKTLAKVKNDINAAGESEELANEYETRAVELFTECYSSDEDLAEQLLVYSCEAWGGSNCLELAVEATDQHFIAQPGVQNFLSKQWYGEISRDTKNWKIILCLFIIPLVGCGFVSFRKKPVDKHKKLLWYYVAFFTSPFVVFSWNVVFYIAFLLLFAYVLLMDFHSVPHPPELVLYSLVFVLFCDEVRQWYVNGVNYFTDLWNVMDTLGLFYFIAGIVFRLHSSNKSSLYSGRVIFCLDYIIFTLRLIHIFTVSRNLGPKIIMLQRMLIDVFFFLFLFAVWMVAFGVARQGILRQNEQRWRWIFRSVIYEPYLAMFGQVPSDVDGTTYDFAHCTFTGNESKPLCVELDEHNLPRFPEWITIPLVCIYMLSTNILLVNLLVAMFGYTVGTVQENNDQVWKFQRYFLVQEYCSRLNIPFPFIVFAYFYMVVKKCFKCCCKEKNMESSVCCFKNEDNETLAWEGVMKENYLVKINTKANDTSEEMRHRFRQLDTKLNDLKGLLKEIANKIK", "experiment": "Intracellular calcium (fluo-4 fluorescence) assay in HEK 293 cells stably expressing human TRPM8", "type": "cell-based", "conditions": "fluo-4 calcium fluorescence, concentration producing one-half of maximal response (DFmax)", "source_text": "Humans can detect changes in temperature from noxious cold (<8 C) to noxious heat (>52 C) due to activation of sensory nerve fibers. “The principal temperature sensors in the sensory nerve fibers are members of a family of transient receptor potential (TRP) cation channels” (Voets et al., 2004). In humans the sensation of cooling is elicited by activation of channel TRPM8, which is activated at temperatures below 28 C (Voets et al., 2004). Furthermore human TRPM8 is activated by compounds such as menthol (Brauchi et al., Proc. Natl. Acad. Sci. USA, 2004, Oct. 26; 101 (43):15494-9; Voets et al., Nature, 2004, 430 (7001): 748-54). […]\nThe open reading frame of human cDNA TRPM8 from position 41-3355bp was amplified from a human prostate cDNA library (Stratagene) using primers […] and […] as previously described previously (Tsavalier et al., 2001). […]\nCells stably expressing the human TRPM8 were seeded in a 96 well plate (coated with polylysine) at a density of 10^5 cells /well in 200 μl of media. […] The dye was then removed and the cells were incubated in a Tyrodes buffer (containing 1 mM probenicide, pH 7.4) pre-equilibrated at a certain temperature (i.e 37° C.) and the intracellular calcium levels were monitored at the same temperature, using the Novostar plate reader. The cells in each well were illuminated at 480 nm, and the fluorescent light emitted at 510 nm was measured. […]", "data": [{"smiles": "CCCn1cnc2sc3c(c2c1=N)CCCC3", "note": "[Example 1, 3-propyl-5,6,7,8-tetrahydro-3H-benzo[4,5]-thieno[2,3-d]pyrimidin-4-ylidene amine]", "values": [{"measurement": "EC50", "value": 6.5, "unit": "µM"}]}]}
